Patent US20260207711A1, “FORMULATIONS, DEVICES AND METHODS FOR A GLP-1 AGONIST” (Nano Precision Medical, Inc., priority 2023, published 2026)

Test: Stability of the formulation remaining in terminated devices (purity, remaining concentration, mass balance by HPLC)
Format: physicochemical
Settings: over 77 days; starting purity of semaglutide as received 94%
From the text: Each trace in the figure represents a separate measurement of a separate vial. At the end of the time period devices were terminated, disassembled and the internal compositions measured.
The mass balance numbers indicate that no appreciable amount of drug was lost in the form of degradants undetectable by HPLC, such a fibrils.
[…] Purities were […].

semaglutide
total loss in purity: 7-8%
